Measurements as given in doi:10.1101/2021.09.30.462449v1 (biorxiv, 2021).

What was measured:
Experiment in all cases: biochemical
Details in all cases: read-out: % inhibition mean (Z'Lyte)
FER = FER (Homo sapiens, UniProt P16591)
PRKCN (PKD3) = PRKCN (PKD3) (Homo sapiens, UniProt O94806)
STK25 (YSK1) = STK25 (YSK1) (Homo sapiens, UniProt O00506)
AKT3 (PKB gamma) = AKT3 (PKB gamma) (Homo sapiens, UniProt Q9Y243)
CSNK2A2 (CK2 alpha 2) = CSNK2A2 (CK2 alpha 2) (Homo sapiens, UniProt P19784)
ABL1 Y253F = ABL1 Y253F (Homo sapiens, UniProt P00519, Y253F)
KIT V559D = KIT V559D (Homo sapiens, UniProt P10721, V559D)
MAPK1 (ERK2) = MAPK1 (ERK2) (Homo sapiens, UniProt P28482)
EGFR (ErbB1) L861Q = EGFR (ErbB1) L861Q (Homo sapiens, UniProt P00533, L861Q)
MAPK12 (p38 gamma) = MAPK12 (p38 gamma) (Homo sapiens, UniProt P53778)
EGFR (ErbB1) G719S = EGFR (ErbB1) G719S (Homo sapiens, UniProt P00533, G719S)
SRC N1 = SRC N1 (Homo sapiens, UniProt P12931)
CSNK1A1L = CSNK1A1L (Homo sapiens, UniProt Q8N752)
RET V804E = RET V804E (Homo sapiens, UniProt P07949, V804E)
EPHA4 = EPHA4 (Homo sapiens, UniProt P54764)
BRAF = BRAF (Homo sapiens, UniProt P15056)
ADRBK1 (GRK2) = ADRBK1 (GRK2) (Homo sapiens, UniProt P25098)
PRKCE (PKC epsilon) = PRKCE (PKC epsilon) (Homo sapiens, UniProt Q02156)
PRKCB2 (PKC beta II) = PRKCB2 (PKC beta II) (Homo sapiens, UniProt P05771)
MET (cMet) Y1235D = MET (cMet) Y1235D (Homo sapiens, UniProt P08581, Y1235D)
KDR (VEGFR2) = KDR (VEGFR2) (Homo sapiens, UniProt P35968)
AURKC (Aurora C) = AURKC (Aurora C) (Homo sapiens, UniProt Q9UQB9)
CSNK1G2 (CK1 gamma 2) = CSNK1G2 (CK1 gamma 2) (Homo sapiens, UniProt P78368)
ROCK1 = ROCK1 (Homo sapiens, UniProt Q13464)
JAK2 = JAK2 (Homo sapiens, UniProt O60674)
AMPK (A2/B2/G3) = AMPK (A2/B2/G3) (Homo sapiens, UniProt P54646)
MST1R (RON) = MST1R (RON) (Homo sapiens, UniProt Q04912)
PRKCG (PKC gamma) = PRKCG (PKC gamma) (Homo sapiens, UniProt P05129)

Chain of EPHA4 (P54764 whole entry): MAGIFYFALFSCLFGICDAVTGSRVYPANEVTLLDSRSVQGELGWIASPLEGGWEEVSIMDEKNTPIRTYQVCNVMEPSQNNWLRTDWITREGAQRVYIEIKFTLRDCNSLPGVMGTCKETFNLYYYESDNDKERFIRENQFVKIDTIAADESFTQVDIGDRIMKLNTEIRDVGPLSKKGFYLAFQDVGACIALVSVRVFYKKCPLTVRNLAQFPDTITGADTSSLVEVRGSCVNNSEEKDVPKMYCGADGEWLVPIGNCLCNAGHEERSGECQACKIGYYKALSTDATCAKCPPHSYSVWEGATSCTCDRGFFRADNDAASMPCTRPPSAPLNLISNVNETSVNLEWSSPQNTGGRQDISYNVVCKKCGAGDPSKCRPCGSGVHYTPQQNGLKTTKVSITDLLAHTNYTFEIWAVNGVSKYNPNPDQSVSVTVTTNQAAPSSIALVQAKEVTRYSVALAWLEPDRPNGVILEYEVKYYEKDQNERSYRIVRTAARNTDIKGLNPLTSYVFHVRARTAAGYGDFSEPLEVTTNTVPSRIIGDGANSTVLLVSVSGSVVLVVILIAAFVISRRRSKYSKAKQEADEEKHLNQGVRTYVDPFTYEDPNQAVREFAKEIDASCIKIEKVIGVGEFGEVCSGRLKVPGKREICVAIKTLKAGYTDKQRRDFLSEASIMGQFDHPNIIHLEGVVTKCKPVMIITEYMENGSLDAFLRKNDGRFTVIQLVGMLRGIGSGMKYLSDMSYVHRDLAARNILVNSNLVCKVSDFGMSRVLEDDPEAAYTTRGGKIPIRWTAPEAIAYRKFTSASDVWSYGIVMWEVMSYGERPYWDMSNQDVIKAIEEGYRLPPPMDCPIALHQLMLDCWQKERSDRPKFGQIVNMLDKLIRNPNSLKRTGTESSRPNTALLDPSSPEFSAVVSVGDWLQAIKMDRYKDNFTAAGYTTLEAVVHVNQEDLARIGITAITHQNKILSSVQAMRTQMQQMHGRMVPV
Chain of KIT V559D (P10721 whole entry V559D): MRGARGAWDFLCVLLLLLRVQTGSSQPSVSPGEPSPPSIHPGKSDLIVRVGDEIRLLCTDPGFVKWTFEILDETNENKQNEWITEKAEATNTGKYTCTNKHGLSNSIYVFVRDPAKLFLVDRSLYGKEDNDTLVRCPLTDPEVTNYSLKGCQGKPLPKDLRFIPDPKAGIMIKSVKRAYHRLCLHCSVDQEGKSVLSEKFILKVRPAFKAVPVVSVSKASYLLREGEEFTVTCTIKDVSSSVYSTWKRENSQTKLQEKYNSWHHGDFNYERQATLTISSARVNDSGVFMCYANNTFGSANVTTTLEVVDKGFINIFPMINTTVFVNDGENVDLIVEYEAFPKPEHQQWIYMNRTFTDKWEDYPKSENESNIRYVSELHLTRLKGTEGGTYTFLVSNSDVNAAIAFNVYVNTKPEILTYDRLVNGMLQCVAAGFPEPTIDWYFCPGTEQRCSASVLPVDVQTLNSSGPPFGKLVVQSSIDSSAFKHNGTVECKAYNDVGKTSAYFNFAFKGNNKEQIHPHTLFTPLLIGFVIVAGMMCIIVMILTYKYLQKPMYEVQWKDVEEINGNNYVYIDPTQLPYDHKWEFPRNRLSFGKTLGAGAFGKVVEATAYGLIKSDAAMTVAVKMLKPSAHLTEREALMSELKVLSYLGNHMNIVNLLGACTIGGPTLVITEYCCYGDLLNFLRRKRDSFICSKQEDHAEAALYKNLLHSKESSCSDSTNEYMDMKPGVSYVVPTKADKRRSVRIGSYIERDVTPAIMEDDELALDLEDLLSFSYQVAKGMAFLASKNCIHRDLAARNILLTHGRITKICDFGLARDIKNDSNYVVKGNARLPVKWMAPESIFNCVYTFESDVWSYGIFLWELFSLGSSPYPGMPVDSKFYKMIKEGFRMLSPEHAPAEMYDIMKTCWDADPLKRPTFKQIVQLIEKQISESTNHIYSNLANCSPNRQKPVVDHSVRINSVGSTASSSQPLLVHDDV
Chain of PRKCB2 (PKC beta II) (P05771 whole entry): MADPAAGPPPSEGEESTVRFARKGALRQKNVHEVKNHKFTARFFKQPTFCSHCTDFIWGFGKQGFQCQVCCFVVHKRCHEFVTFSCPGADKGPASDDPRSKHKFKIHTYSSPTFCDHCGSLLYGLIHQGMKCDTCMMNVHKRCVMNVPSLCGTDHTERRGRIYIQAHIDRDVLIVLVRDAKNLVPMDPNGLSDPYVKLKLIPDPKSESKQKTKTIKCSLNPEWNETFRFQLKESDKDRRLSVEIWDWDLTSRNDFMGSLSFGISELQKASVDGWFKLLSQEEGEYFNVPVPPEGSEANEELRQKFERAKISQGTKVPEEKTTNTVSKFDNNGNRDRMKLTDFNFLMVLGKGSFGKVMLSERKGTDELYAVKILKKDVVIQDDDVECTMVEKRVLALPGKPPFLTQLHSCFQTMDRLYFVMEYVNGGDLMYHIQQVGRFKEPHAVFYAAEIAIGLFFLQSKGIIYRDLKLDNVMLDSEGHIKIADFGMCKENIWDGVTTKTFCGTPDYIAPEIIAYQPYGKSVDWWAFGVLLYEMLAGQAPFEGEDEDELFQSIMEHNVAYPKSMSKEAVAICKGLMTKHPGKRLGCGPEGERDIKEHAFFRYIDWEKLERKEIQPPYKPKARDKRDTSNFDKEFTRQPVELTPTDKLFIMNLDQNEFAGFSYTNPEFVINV
Chain of MAPK12 (p38 gamma) (P53778 whole entry): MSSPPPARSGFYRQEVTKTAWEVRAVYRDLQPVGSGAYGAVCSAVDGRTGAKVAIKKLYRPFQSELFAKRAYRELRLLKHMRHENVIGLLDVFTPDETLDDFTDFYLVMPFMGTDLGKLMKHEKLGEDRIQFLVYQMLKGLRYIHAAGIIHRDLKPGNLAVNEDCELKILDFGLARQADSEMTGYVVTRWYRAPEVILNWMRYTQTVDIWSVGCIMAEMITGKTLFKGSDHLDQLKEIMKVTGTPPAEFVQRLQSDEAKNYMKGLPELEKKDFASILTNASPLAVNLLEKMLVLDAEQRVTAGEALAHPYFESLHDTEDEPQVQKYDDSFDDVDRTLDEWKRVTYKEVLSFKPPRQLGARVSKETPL
Chain of JAK2 (O60674 whole entry): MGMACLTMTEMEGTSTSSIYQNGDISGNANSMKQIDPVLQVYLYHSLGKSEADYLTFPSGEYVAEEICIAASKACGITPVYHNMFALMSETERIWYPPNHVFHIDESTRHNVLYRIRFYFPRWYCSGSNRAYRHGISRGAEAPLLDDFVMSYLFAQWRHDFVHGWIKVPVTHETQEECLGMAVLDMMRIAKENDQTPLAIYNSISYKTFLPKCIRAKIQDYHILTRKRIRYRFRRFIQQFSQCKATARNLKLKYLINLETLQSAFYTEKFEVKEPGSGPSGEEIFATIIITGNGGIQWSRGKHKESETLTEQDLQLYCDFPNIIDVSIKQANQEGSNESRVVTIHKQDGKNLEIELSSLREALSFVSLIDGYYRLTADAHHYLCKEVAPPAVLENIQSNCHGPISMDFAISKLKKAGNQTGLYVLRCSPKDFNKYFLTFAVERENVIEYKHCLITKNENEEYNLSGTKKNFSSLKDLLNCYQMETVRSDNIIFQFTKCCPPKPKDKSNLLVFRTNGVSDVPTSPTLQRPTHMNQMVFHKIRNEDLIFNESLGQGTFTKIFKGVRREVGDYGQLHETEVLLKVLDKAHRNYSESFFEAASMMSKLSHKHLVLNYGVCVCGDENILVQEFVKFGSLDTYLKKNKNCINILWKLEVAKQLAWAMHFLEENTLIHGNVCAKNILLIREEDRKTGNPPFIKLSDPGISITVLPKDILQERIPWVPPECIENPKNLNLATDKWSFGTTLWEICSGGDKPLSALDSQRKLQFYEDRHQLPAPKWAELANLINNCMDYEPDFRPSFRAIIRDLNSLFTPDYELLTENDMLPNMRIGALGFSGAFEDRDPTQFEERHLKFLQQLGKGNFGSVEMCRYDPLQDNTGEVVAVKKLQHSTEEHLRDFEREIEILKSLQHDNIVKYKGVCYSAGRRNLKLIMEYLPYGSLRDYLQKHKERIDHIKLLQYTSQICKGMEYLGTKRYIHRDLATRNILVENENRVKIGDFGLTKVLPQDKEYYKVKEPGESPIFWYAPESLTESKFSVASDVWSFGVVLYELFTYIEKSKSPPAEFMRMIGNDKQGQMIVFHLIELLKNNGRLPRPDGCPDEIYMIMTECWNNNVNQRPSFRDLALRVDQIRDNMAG
Chain of BRAF (P15056 whole entry): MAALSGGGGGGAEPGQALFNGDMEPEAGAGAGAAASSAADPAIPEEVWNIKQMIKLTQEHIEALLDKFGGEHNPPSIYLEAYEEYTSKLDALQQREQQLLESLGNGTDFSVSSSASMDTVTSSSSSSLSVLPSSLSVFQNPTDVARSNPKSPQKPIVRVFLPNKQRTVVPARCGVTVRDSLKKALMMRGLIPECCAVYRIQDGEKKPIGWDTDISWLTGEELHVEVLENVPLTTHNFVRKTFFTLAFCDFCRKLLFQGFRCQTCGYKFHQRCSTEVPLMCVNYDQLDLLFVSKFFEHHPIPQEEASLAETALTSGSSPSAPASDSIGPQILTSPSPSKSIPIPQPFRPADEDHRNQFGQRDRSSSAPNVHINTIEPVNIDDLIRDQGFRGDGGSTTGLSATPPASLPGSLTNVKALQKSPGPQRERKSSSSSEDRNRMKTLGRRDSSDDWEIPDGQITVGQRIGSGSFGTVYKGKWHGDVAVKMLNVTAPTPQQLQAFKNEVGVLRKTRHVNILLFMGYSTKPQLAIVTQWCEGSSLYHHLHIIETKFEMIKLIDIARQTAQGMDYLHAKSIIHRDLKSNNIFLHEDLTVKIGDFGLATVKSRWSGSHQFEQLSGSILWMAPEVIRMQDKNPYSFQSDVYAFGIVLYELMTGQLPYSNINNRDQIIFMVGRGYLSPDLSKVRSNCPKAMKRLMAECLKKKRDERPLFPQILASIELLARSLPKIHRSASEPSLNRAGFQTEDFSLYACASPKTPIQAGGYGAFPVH

COc1ccc2nc3cc(Cl)ccc3c(Nc3cc(CN4CCCC4)c(O)c(CN4CCCC4)c3)c2n1 [Pyronaridine, 4-[(7-Chloro-2-methoxybenzo[b][1,5]naphthyridin-10-yl)amino]-2,6-bis(1-pyrrolidinylmethyl)phenol phosphate (1:4)]
inhibition at 1 µM (FER): -21%
inhibition at 1 µM (PRKCN (PKD3)): 8%
inhibition at 1 µM (STK25 (YSK1)): -7%
inhibition at 1 µM (AKT3 (PKB gamma)): 7%
inhibition at 1 µM (CSNK2A2 (CK2 alpha 2)): 5%
inhibition at 1 µM (ABL1 Y253F): -1%
inhibition at 1 µM (KIT V559D): -1%
inhibition at 1 µM (MAPK1 (ERK2)): -1%
inhibition at 1 µM (EGFR (ErbB1) L861Q): -4%
inhibition at 1 µM (MAPK12 (p38 gamma)): 7%
inhibition at 1 µM (EGFR (ErbB1) G719S): -5%
inhibition at 1 µM (SRC N1): 5%
inhibition at 1 µM (CSNK1A1L): 3%
inhibition at 1 µM (RET V804E): 2%
inhibition at 1 µM (EPHA4): -2%
inhibition at 1 µM (BRAF): 4%
inhibition at 1 µM (ADRBK1 (GRK2)): -3%
inhibition at 1 µM (PRKCE (PKC epsilon)): 6%
inhibition at 1 µM (PRKCB2 (PKC beta II)): 15%
inhibition at 1 µM (MET (cMet) Y1235D): 4%
inhibition at 1 µM (KDR (VEGFR2)): 7%
inhibition at 1 µM (AURKC (Aurora C)): -11%
inhibition at 1 µM (CSNK1G2 (CK1 gamma 2)): 4%
inhibition at 1 µM (ROCK1): 2%
inhibition at 1 µM (JAK2): 4%
inhibition at 1 µM (AMPK (A2/B2/G3)): 2%
inhibition at 1 µM (MST1R (RON)): 2%
inhibition at 1 µM (PRKCG (PKC gamma)): -4%
